In ChEMBL document CHEMBL1150890, “Cyclotheonamides E2 and E3, new potent serine protease inhibitors from the marine sponge of the genus Theonella” (J Nat Prod, 1998):
Starred links: 1 amine or outer side, 2 acyl side, 3 side chain; linkers in the order of their positions; H or OH if unused. Positions of bridges follow the written chain, without caps; N, C: chain ends. Non-standard residues stand in square brackets, D forms with d. Residues, ends and D or L forms follow the SMILES beside them. *: point of attachment. Arg(ψCOCO) = N=C(N)NCCC[C@H](N[*:1])C(=O)C(=O)[*:2]; X1 = O=C(/C=C/[C@H](Cc1ccc(O)cc1)N[*:1])[*:2]; aIle = CC[C@@H](C)[C@H](N)C(=O)O; Dap = NC[C@H](N)C(=O)O; PhAc = O=C(Cc1ccccc1)*

Columns and labels:
[1] = molecular target: Prothrombin (Homo sapiens, UniProt P00734); assay: Inhibition of thrombin
[2] = Inhibition of trypsin

Structure (SMILES): CC[C@H](C)[C@H]1NC(=O)C(=O)[C@H](CCCNC(=N)N)NC(=O)[C@@H]2CCCN2C(=O)[C@@H](NC(=O)[C@H](C)NC(=O)c2ccccc2)CNC(=O)/C=C/[C@H](Cc2ccc(O)cc2)NC1=O [CYCLOTHEONAMIDE E2]
- IC50 [1]: 13 nM
- IC50 [2]: 55 nM

Structure (SMILES): CC[C@@H](C)[C@@H]1NC(=O)C(=O)[C@H](CCCNC(=N)N)NC(=O)[C@@H]2CCCN2C(=O)[C@@H](NC(=O)[C@H](C)NC(=O)Cc2ccccc2)CNC(=O)/C=C/[C@H](Cc2ccc(O)cc2)NC1=O [CYCLOTHEONAMIDE E] (PhAc-A[Dap]P[Arg(ψCOCO)][aIle][X1]; lactam 2-C)
- IC50 [1]: 2.9 nM
- IC50 [2]: 30 nM

Structure (SMILES): N=C(N)NCCC[C@@H]1NC(=O)[C@@H]2CCCN2C(=O)[C@@H](NC=O)CNC(=O)/C=C/[C@H](Cc2ccc(O)cc2)NC(=O)[C@@H](Cc2ccccc2)NC(=O)C1=O [CYCLOTHEONAMIDE A]
- IC50 [1]: 23 nM
- IC50 [2]: 16 nM

Structure (SMILES): CC[C@H](C)[C@H]1NC(=O)C(=O)[C@H](CCCNC(=N)N)NC(=O)[C@@H]2CCCN2C(=O)[C@@H](NC(=O)[C@H](C)NC(=O)CC(C)C)CNC(=O)/C=C/[C@H](Cc2ccc(O)cc2)NC1=O [CYCLOTHEONAMIDE E3]
- IC50 [1]: 9.5 nM
- IC50 [2]: 52 nM
